The values below are quoted from earlier work in paper PMC6376154 (International Journal for Parasitology: Drugs and Drug …, 2019).

The structures appear in SMILES notation. Read-outs that look alike come from different tables or passages of the source.

The data set concerns P. falciparum 3D7 asexual blood stage. To be noted: cited from earlier work.
[1] abbreviates: MMV Malaria Box data sheet (supplement mmc2.xls), ref MMV data sheet.
Setting [2] is: value(s) per source (GSK, GNF, StJude), separated by semicolon, ref ChEMBL-NTD, read-out: CHEMBL EC50.
[3] abbreviates: ChEMBL-NTD value per source (GNF, GSK, StJude), several values in a cell follow the order of the sources, read-out: CHEMBL EC50.
Setting [4] is: MMV Malaria Box sheet, ref MMV data sheets.
Where [5] appears, read: source StJude, ref ChEMBL_NTD, read-out: CHEMBL EC50.
The mark [6] stands for this setting: MMV Malaria Box data sheet, ref MMV data sheets.
Setting [7] is: MMV Malaria Box data sheet, ref MMV data sheets, read-out: EC50_nM.
[8] abbreviates: MMV Malaria Box data sheet (supplement mmc2.xls), ref MMV data sheet, read-out: EC50_nM.
Setting [9] is: source GNF, ref ChEMBL_NTD, read-out: CHEMBL EC50.
[10] abbreviates: source GSK, ref ChEMBL_NTD, read-out: CHEMBL EC50.
The mark [11] stands for this setting: MMV Malaria Box sheet, ref MMV data sheets, read-out: EC50_nM.

Regarding `CCOc1cccc2sc(N(Cc3cccnc3)C(=O)C3CCCCC3)nc12` [MMV001230], under setting [1], the “percent_inh @ 5 uM” value is given as 94%. In addition, under setting [2], the EC50 is 3040 nM.

For the compound `COc1ccc2sc(N(Cc3cccnc3)C(=O)c3ccc(C#N)cc3)nc2c1` [MMV001239], under setting [3], the EC50 was 15000 nM.

Take `COc1ccc(C)c2sc(N(Cc3cccnc3)C(=O)c3ccc(C#N)cc3)nc12` [MMV001241]: the “percent_inh @ 5 uM” value under setting [4] is reported as 91%. Further, the EC50 under setting [5] is 15000 nM.

For `CSc1ccccc1C(=O)Nc1nc(-c2ccccn2)cs1` [MMV001246], the “percent_inh @ 5 uM” value under setting [6] was 98%. For the same compound, the EC50 by setting is: under setting [7], 206 nM; under setting [5], 6820 nM.

For `CCCCc1ccc(NS(=O)(=O)c2cc3c4c(c2)CCN4C(=O)CC3)cc1` [MMV001255], the “percent_inh @ 5 uM” value under setting [6] is recorded as 96%. Moreover, the EC50 was 538 nM under setting [7] and 15000 nM under setting [5].

As to `O=C(Nc1ccc(Br)cc1)Nc1cccc(Cl)c1` [MMV001318], the “percent_inh @ 5 uM” value under setting [4] is on record as 94%. The EC50 under setting [5] was 15000 nM.

Take `CC1CC(C)CN(C(=O)c2ccc(Cl)cc2Cl)C1` (stereo not shown) [MMV001344]: the “percent_inh @ 5 uM” value under setting [1] was 95%. Moreover, the EC50 was 756 nM under setting [8] and 1320 nM under setting [2].

With `CCN(CC)CCNc1ccnc2cc(Cl)ccc12` [MMV006087], the EC50 by setting is: under setting [7], 58.1 nM; under setting [9], 7.16 nM.

As for `c1ccc(CNc2nc(Nc3ccccc3)nc3ccccc23)cc1` [MMV006169], the EC50 under setting [3] was 158 nM.

Take `CN1CCN(c2ccc(Nc3c4ccccc4nc4ccccc34)cc2)CC1` [MMV006172]: under setting [6], the “percent_inh @ 5 uM” value is given as 97%. Also, the EC50 was 142 nM under setting [7], 56.7 nM under setting [9] and 645 nM under setting [10].

With `O=C(NCc1ccco1)C1CCN(S(=O)(=O)c2ccc(Cl)cc2)CC1` [MMV006188], the “percent_inh @ 5 uM” value under setting [1] was 94%. Further, the EC50 runs as follows: under setting [8], 890 nM; under setting [2], 514 nM.

`Cc1cc(NCCN2CCCCC2)c2ccc3ccccc3c2n1` [MMV006203]: the “percent_inh @ 5 uM” value under setting [6] is on record as 99%. Besides, the EC50 runs as follows: under setting [7], 300 nM; under setting [9], 44.1 nM.

In the case of `CCOC(=O)c1cnc2c(C)cccc2c1Nc1ccc(C(C)=O)cc1` [MMV006250], the “percent_inh @ 5 uM” value under setting [4] is on record as 94%. In addition, the EC50 under setting [11] was 314 nM and the EC50 under setting [9] is 119 nM.

On to `CCc1c(C)c(=N)c2ccccc2n1C` [MMV006278], for which, under setting [6], the “percent_inh @ 5 uM” value was 76%. For the same compound, the EC50 by setting is: under setting [7], 378 nM; under setting [9], 701 nM.

As to `CCN(CC)CCNc1ccnc2cc3ccccc3cc12` [MMV006303], the EC50 under setting [3] was 28.6 nM.

Turning to `CN(C)c1ccc(C=Cc2nc(=O)c3ccccc3o2)cc1` [MMV006309], the “percent_inh @ 5 uM” value under setting [6] is recorded as 96%. Also, the EC50 under setting [7] is 51.5 nM and the EC50 under setting [10] was 44.6 nM.

Turning to `Cc1cc(Nc2cccc(F)c2)nc(NCc2ccccc2)n1` [MMV006319], the “percent_inh @ 2 uM” value (2 uM, MMV Malaria Box sheet, ref MMV data sheets) is 97%. The EC50 was 662 nM under setting [11] and 72.2 nM under setting [9].

As for `O=C1c2ccccc2C2=Nc3ccccc3SC(c3cccc(F)c3)C12` (stereo not shown) [MMV006389], under setting [4], the “percent_inh @ 5 uM” value was 94%. For the same compound, the EC50 was 414 nM under setting [11] and 86.7 nM under setting [9].

Take `COc1cc(OC)c(N(C)C(=O)c2cc3c(s2)-c2ccccc2S(=O)(=O)C3)cc1Cl` [MMV006427]: the “percent_inh @ 5 uM” value under setting [6] is reported as 100%. Further, the EC50 by setting is: under setting [7], 78.2 nM; under setting [9], 113 nM.

`Cc1cc(NC(=O)C2c3ccccc3C(=O)N(CC(C)C)C2c2cccs2)no1` (stereo not shown) [MMV006429]: the “percent_inh @ 5 uM” value under setting [6] is reported as 100%. In addition, the EC50 by setting is: under setting [7], 32.8 nM; under setting [9], 85.6 nM.

For `CCOC(=O)c1ccc2nc(-c3ccccc3)cc(O)c2c1` [MMV006457], the “percent_inh @ 5 uM” value under setting [6] is 96%. Further, the EC50 reads like this: under setting [7], 118 nM; under setting [9], 549 nM.

Turning to `c1ccc2c(NCCc3c[nH]c4ccccc34)c3ccccc3nc2c1` [MMV006513], the “percent_inh @ 5 uM” value under setting [4] is listed as 97%. Also, the EC50 is 304 nM under setting [11] and 86 nM under setting [9].

Regarding `CCOc1ccc2nc(C)cc(Nc3ccc(Br)cc3)c2c1` [MMV006522], under setting [3], the EC50 was 114 nM.
